Laboratory results published in US9783552B2, “Soluble guanylate cyclase activators” (MERCK SHARP & DOHME CORP., priority 2013, dated 2017).

Molecular target: T1, sGC α1/β1 heterodimer (Homo sapiens, UniProt Q02108+Q02153)
T1 construct: expressed in transfected cells
T1 sequence (Q02108 1-690): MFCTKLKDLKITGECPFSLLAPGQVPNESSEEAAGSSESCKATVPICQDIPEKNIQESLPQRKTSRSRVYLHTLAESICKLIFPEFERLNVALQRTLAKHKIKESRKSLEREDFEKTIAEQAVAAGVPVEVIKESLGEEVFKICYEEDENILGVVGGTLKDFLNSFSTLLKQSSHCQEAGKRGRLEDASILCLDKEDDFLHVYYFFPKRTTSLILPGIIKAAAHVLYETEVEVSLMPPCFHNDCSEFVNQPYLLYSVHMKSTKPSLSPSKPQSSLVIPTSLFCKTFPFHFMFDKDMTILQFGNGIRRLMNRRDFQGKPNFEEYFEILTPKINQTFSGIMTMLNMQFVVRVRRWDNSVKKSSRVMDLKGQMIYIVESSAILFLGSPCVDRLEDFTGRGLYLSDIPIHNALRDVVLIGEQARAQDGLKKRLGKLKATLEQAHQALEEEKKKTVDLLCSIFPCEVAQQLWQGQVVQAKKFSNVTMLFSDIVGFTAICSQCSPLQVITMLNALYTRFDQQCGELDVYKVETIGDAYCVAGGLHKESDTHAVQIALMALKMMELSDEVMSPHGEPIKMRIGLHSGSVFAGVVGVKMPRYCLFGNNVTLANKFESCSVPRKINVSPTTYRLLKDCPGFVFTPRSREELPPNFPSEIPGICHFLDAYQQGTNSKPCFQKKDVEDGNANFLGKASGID
T1 sequence (Q02153 1-619): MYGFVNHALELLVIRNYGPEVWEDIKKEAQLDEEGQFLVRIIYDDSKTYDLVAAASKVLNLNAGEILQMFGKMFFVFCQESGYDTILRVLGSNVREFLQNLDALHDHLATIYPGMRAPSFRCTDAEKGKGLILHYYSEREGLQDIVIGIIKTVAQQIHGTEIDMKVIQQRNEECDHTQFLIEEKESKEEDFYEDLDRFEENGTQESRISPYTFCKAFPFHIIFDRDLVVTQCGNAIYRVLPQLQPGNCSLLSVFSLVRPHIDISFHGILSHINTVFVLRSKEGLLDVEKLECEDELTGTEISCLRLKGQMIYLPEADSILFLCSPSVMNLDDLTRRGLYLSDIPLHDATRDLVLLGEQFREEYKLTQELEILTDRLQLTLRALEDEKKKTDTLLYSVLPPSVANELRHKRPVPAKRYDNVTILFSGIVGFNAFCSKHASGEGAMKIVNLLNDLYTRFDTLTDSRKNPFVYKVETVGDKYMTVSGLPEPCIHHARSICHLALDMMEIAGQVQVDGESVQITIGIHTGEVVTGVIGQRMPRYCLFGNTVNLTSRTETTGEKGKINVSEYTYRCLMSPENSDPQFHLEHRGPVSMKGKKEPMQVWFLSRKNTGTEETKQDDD
Assay: Cell-Based sGC Functional Assay (CASA Assay)
Settings: CHO-K1/sGC cells; for EC50: intracellular cGMP by HTRF, 1 hr at 37° C., IP from 4P fit, presence or absence of 1 μM DETA-NO not given; for Emax: cGMP as percentage of maximum cGMP production of Compound A (=100% activation), read-out: % ACT (percent activation)
Summary of the method: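 cGMP accumulation was quantified by HTRF in stable human sGC α1/β1 CHO-K1 cells after 1 hr at 37 °C with compound, 0.5 mM IBMX and 2.5% DMSO. Runs were done in the presence and absence of 1 μM of the NO donor DETA-NO. Activation was normalised to the reference heme-dependent activator maximum (100%), and a 4P fit gave IP and maximum fold induction.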

SMILES	EC50 [µM]	Emax [%]
[2H]C([2H])([2H])n1ncc2c(-c3nc(N)c4c(n3)NC(=O)C4(C)c3cccc(O)c3)nc(CCC(F)(F)C(F)(F)F)nc21 (centres unmarked) [Example 44, 4-Amino-5-(3-hydroxyphenyl)-5-methyl-2-(6-(3,3,4,4,4-pentafluorobutyl)-1-trideuteriomethyl-1H-pyrazolo[3,4-d]pyrimidin-4-yl)-5H-pyrrolo[2,3-d]pyrimidin-6(7H)-one]	0.111	88
[2H]C([2H])([2H])OC1(C)C(=O)Nc2nc(-c3nc(CCC(F)(F)C(F)(F)F)nc4c3cnn4C)nc(N)c21 (centres unmarked) [Example 57, 4-Amino-5-methyl-5-trideuteriomethoxy-2-(1-methyl-6-(3,3,4,4,4-pentafluorobutyl)-1H-pyrazolo[3,4-d]pyrimidin-4-yl)-5H-pyrrolo[2,3-d]pyrimidin-6(7H)-one]	0.113	139
[2H]C([2H])([2H])n1ncc2c(-c3nc(N)c4c(n3)NC(=O)C4(C)c3ccc(-c4nnco4)cc3)nc(CCC(F)(F)C(F)(F)F)nc21 (single isomer, unassigned) [Example 45, 5-(4-(1,3,4-Oxadiazol-2-yl)phenyl)-4-amino-5-methyl-2-(1-methyl-6-(3,3,4,4,4-pentafluorobutyl)-1H-pyrazolo[3,4-d]pyrimidin-4-yl)-5H-pyrrolo[2,3-d]pyrimidin-6(7H)-one]	0.716	138
C#CC1(C)C(=O)Nc2nc(-c3nc(CCC(F)(F)C(F)(F)F)nc4c3cnn4C)nc(N)c21 (single isomer, unassigned) [Example 21, 4-Amino-5-ethynyl-5-methyl-2-(1-methyl-6-(3,3,4,4,4-pentafluorobutyl)-1H-pyrazolo[3,4-d]pyrimidin-4-yl)-5H-pyrrolo[2,3-d]pyrimidin-6(7H)-one]	0.092	106
[2H]C([2H])([2H])n1ncc2c(-c3nc(N)c4c(n3)NC(=O)C4(C)c3ccc(-c4cnn(C)c4)cc3)nc(CCC(F)(F)C(F)(F)F)nc21 (single isomer, unassigned) [Example 46, 4-Amino-5-methyl-5-(4-(1-methyl-1H-pyrazol-4-yl)phenyl)-2-(6-(3,3,4,4,4-pentafluorobutyl)-1-trideuteriomethyl-1H-pyrazolo[3,4-d]pyrimidin-4-yl)-5H-pyrrolo[2,3-d]pyrimidin-6(7H)-one]	0.09	91
CC1(c2ccc(F)cc2)C(=O)Nc2nc(-c3nc(CCC(F)(F)C(F)(F)F)nc4[nH]ncc34)nc(N)c21 (single isomer, unassigned) [Example 8, 4-Amino-5-(4-fluorophenyl)-5-methyl-2-(6-(3,3,4,4,4-pentafluorobutyl)-1H-pyrazolo[3,4-d]pyrimidin-4-yl)-5H-pyrrolo[2,3-d]pyrimidin-6(7H)-one]	0.341	109
[2H]C([2H])([2H])n1ncc2c(-c3nc(N)c4c(n3)NC(=O)C4(CC)C(=O)NC3CC3)nc(CCC(F)(F)C(F)(F)F)nc21 (single isomer, unassigned) [Example 34, 4-Amino-N-cyclopropyl-5-ethyl-2-(6-(3,3,4,4,4-pentafluorobutyl)-1-trideuteriomethyl-1H-pyrazolo[3,4-d]pyrimidin-4-yl)-6-oxo-6,7-dihydro-5H-pyrrolo[2,3-d]pyrimidine-5-carboxamide]	0.143	122
Cn1ncc2c(-c3nc(N)c4c(n3)NC(=O)C4(C)C#N)nc(CCC(F)(F)C(F)(F)F)nc21 (single isomer, unassigned) [Example 49, 4-Amino-5-methyl-2-(1-methyl-6-(3,3,4,4,4-pentafluorobutyl)-1H-pyrazolo[3,4-d]pyrimidin-4-yl)-6-oxo-6,7-dihydro-5H-pyrrolo[2,3-d]pyrimidine-5-carbonitrile]	0.248	105
[2H]C([2H])([2H])n1ncc2c(-c3nc(N)c4c(n3)NC(=O)C4(C)c3ccc(C#N)cc3)nc(CCC(F)(F)C(F)(F)F)nc21 (single isomer, unassigned) [Example 47, 4-(4-Amino-5-methyl-2-(6-(3,3,4,4,4-pentafluorobutyl)-1-trideuteriomethyl-1H-pyrazolo[3,4-d]pyrimidin-4-yl)-6-oxo-6,7-dihydro-5H-pyrrolo[2,3-d]pyrimidin-5-yl)benzonitrile]	0.03	95
Cn1ncc2c(-c3nc(N)c4c(n3)NC(=O)C4(C)NC(=O)c3ccccn3)nc(CCC(F)(F)C(F)(F)F)nc21 (centres unmarked) [Example 51, N-(4-Amino-5-methyl-2-(1-methyl-6-(3,3,4,4,4-pentafluorobutyl)-1H-pyrazolo[3,4-d]pyrimidin-4-yl)-6-oxo-6,7-dihydro-5H-pyrrolo[2,3-d]pyrimidin-5-yl)picolinamide]	0.746	109
COc1ccc(C2(C)C(=O)Nc3nc(-c4nc(CCC(F)(F)C(F)(F)F)nc5c4cnn5C)nc(N)c32)cc1F (single isomer, unassigned) [Example 16, 4-Amino-5-(3-fluoro-4-methoxyphenyl)-5-methyl-2-(1-methyl-6-(3,3,4,4,4-pentafluorobutyl)-1H-pyrazolo[3,4-d]pyrimidin-4-yl)-5H-pyrrolo[2,3-d]pyrimidin-6(7H)-one]	0.015	112
[2H]C([2H])([2H])n1ncc2c(-c3nc(N)c4c(n3)NC(=O)C4(C)c3ccccc3)nc(CCC(F)(F)C(F)(F)F)nc21 (single isomer, unassigned) [Example 13, 4-Amino-5-methyl-2-(6-(3,3,4,4,4-pentafluorobutyl)-1-trideuteriomethyl-1H-pyrazolo[3,4-d]pyrimidin-4-yl)-5-phenyl-5H-pyrrolo[2,3-d]pyrimidin-6(7H)-one]	0.04	101
Cn1ccc2c(-c3nc(N)c4c(n3)NC(=O)C4(C)c3ccccc3)nc(Cc3cccc(F)c3F)nc21 (single isomer, unassigned) [Example 64, 4-Amino-2′-(2,3-difluorobenzyl)-5,7′-dimethyl-5-phenyl-5H,7′H-[2,4′-bipyrrolo[2,3-d]pyrimidin]-6(7H)-one]	0.012	83
[2H]C([2H])([2H])n1nnc2c(-c3nc(N)c4c(n3)NC(=O)C4(C)c3ccccc3)nc(CCC(F)(F)C(F)(F)F)nc21 (single isomer, unassigned) [Example 68, 4-Amino-5-methyl-2-(5-(3,3,4,4,4-pentafluorobutyl-3-trideuteriomethyl)-3H-[1,2,3]triazolo[4,5-d]pyrimidin-7-yl)-5-phenyl-5H-pyrrolo[2,3-d]pyrimidin-6(7H)-one]	0.403	107
CC(C)NC1(C)C(=O)Nc2nc(-c3nc(CCC(F)(F)C(F)(F)F)nc4c3cnn4C)nc(N)c21 (centres unmarked) [Example 55, 4-Amino-5-(isopropylamino)-5-methyl-2-(1-methyl-6-(3,3,4,4,4-pentafluorobutyl)-1H-pyrazolo[3,4-d]pyrimidin-4-yl)-5H-pyrrolo[2,3-d]pyrimidin-6(7H)-one]	0.119	118
[2H]C([2H])([2H])n1ncc2c(-c3nc(N)c4c(n3)NC(=O)C4(C)C(=O)Nc3cnn(C)c3)nc(CCC(F)(F)C(F)(F)F)nc21 (single isomer, unassigned) [Example 42, 4-amino-5-methyl-N-(1-methyl-1H-pyrazol-4-yl)-2-(6-(3,3,4,4,4-pentafluorobutyl)-1-trideuteriomethyl-1H-pyrazolo[3,4-d]pyrimidin-4-yl)-6-oxo-6,7-dihydro-5H-pyrrolo[2,3-d]pyrimidine-5-carboxamide]	0.111	134
